# In BindingDB's records for patent US11547697 (Millennium Pharmaceuticals, 2023):
# Assays:
# Assay in all cases: Inhibition Assay of PI3K
# [1] = biological target: T1, Phosphatidylinositol 4,5-bisphosphate 3-kinase catalytic subunit delta isoform (Homo sapiens, UniProt O00329)
# T1 sequence (O00329 whole entry): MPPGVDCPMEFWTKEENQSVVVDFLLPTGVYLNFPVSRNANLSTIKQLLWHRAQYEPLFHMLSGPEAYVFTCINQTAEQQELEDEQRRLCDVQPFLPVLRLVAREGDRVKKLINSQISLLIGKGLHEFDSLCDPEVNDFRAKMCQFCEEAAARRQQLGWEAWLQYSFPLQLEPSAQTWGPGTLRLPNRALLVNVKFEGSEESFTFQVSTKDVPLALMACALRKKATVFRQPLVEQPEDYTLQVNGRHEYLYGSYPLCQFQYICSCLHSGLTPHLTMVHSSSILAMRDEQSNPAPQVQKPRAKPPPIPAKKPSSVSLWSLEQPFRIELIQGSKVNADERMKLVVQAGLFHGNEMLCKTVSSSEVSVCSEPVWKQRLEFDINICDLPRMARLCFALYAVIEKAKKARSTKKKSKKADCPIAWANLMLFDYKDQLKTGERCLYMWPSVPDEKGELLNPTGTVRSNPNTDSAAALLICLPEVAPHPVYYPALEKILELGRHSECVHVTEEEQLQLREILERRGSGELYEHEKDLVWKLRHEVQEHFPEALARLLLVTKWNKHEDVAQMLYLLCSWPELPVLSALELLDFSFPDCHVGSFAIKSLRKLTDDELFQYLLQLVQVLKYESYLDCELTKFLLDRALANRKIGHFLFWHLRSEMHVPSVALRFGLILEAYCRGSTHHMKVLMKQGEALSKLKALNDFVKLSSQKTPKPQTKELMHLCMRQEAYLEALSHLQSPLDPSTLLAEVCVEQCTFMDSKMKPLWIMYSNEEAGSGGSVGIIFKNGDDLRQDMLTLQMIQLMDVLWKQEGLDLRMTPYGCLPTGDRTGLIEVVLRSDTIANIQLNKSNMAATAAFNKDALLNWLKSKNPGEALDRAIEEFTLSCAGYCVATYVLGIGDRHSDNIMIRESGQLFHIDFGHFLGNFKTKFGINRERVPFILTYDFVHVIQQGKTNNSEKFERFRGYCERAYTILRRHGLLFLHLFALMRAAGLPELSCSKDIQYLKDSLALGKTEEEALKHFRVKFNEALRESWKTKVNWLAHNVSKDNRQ
# [2] = biological target: Phosphatidylinositol 4,5-bisphosphate 3-kinase catalytic subunit beta isoform (Homo sapiens, UniProt P42338)
# Chain of Phosphatidylinositol 4,5-bisphosphate 3-kinase catalytic subunit beta isoform (P42338 whole entry, canonical isoform): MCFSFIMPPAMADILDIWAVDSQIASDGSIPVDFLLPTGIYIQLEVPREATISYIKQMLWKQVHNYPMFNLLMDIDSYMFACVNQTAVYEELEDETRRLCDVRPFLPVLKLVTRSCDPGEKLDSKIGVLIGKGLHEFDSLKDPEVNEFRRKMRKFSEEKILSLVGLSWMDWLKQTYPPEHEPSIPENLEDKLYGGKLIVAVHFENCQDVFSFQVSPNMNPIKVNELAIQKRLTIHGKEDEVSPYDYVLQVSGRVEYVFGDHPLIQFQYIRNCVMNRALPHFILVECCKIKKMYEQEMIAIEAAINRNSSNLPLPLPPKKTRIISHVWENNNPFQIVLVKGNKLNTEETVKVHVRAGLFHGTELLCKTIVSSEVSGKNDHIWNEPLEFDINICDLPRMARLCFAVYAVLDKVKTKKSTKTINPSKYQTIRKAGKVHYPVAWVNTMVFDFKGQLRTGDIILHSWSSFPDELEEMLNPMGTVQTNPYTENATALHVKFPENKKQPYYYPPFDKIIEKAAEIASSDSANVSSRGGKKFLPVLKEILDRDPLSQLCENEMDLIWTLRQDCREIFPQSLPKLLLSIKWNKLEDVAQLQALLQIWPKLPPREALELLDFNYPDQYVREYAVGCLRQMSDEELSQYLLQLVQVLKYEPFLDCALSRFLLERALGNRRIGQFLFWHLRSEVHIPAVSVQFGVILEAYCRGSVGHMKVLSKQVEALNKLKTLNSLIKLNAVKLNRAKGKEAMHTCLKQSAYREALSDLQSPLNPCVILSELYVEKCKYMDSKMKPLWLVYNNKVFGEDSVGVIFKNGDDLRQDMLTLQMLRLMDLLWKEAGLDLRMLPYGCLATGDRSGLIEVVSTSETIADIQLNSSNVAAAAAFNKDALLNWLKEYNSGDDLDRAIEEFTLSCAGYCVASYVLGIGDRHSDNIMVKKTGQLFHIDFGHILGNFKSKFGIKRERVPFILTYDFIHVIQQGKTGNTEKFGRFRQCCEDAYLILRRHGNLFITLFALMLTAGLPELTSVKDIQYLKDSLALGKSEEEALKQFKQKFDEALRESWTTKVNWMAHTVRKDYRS
# [3] = biological target: Phosphatidylinositol 4,5-bisphosphate 3-kinase catalytic subunit gamma isoform (Homo sapiens, UniProt P48736)
# Chain of Phosphatidylinositol 4,5-bisphosphate 3-kinase catalytic subunit gamma isoform (P48736 whole entry, canonical isoform): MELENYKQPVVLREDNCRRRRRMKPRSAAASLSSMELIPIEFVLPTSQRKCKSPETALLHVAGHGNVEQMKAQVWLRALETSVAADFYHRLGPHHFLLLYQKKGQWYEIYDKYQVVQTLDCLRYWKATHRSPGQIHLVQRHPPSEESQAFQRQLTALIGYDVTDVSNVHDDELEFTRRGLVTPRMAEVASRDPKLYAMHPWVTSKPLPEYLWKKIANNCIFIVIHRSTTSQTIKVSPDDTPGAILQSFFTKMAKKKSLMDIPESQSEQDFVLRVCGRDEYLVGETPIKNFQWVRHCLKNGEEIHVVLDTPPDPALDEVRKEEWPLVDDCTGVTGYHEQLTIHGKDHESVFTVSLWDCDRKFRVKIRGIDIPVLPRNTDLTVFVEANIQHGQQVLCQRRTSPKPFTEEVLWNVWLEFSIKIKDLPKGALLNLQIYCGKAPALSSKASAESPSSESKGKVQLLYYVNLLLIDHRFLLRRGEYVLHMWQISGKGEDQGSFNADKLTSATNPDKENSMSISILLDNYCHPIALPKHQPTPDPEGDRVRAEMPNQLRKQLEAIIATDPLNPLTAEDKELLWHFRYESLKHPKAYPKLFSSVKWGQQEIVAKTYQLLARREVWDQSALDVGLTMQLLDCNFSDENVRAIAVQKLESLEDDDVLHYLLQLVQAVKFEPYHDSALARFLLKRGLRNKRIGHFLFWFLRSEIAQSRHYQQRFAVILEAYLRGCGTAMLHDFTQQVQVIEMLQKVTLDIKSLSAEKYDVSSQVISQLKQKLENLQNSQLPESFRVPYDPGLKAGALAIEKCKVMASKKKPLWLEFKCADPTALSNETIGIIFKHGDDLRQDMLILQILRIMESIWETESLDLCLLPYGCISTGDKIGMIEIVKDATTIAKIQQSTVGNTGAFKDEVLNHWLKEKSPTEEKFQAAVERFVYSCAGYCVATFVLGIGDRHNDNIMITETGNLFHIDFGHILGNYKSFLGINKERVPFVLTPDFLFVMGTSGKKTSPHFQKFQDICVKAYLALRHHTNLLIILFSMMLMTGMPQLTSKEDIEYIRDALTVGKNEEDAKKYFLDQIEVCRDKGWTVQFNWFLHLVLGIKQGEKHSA
# [4] = biological target: Phosphatidylinositol 4,5-bisphosphate 3-kinase catalytic subunit alpha isoform (Homo sapiens, UniProt P42336)
# Chain of Phosphatidylinositol 4,5-bisphosphate 3-kinase catalytic subunit alpha isoform (P42336 whole entry, canonical isoform): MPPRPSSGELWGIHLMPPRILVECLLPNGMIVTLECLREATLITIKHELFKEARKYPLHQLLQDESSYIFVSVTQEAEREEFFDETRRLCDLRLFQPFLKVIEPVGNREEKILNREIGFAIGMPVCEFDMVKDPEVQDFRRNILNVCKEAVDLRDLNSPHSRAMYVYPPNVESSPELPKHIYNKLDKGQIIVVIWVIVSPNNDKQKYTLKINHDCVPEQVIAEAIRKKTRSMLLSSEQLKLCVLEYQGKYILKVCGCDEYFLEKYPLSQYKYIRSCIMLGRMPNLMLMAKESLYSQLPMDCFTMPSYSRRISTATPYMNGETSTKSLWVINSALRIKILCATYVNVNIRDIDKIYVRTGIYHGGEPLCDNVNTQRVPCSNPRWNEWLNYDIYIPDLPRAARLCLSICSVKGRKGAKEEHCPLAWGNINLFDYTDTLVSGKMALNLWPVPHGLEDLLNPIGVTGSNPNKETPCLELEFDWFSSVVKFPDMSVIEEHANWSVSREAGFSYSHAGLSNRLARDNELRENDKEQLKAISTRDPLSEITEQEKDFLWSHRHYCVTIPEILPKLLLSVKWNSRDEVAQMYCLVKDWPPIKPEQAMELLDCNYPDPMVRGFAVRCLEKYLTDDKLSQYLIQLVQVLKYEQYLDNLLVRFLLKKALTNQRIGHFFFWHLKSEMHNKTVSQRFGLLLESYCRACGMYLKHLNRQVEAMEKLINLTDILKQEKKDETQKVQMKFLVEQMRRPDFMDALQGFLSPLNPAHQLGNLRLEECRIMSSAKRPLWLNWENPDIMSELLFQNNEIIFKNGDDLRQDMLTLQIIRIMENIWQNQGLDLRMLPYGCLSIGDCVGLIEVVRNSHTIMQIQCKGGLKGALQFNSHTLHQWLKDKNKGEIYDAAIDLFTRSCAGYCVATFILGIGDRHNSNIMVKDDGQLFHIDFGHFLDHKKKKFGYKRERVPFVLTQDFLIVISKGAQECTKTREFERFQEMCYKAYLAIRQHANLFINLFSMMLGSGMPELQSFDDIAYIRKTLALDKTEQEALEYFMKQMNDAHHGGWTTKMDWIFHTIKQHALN
SMILES,IC50 [1],IC50 [2],IC50 [3],IC50 [4]
"CC(=O)Nc1cn2cc(-c3ccc4nccc(-c5ccncc5)c4c3)ccc2n1 [US11547697, Compound 19]",> 10 µM,> 10 µM,> 10 µM,> 10 µM
"Nc1nc2cc(-c3ccc4ncn(C(=O)N5CCOCC5)c4c3)ccc2o1 [US11547697, Compound 317]",> 10 µM,> 10 µM,> 10 µM,> 10 µM
"Nc1nc2cc(-c3ccc4nnc(C(=O)N5CCOCC5)n4c3)ccc2o1 [US11547697, Compound 282]",> 10 µM,> 10 µM,> 10 µM,> 10 µM
"C[C@H]1CN(c2cnc3ccc(-c4cccc5c(N)noc45)cc3n2)CCN1 [US11547697, Compound 363]",> 10 µM,> 10 µM,> 10 µM,> 10 µM
"Cc1cc2oc(N)nc2cc1-c1ccc2ncc(C(=O)N3CCOCC3)n2c1 [US11547697, Compound 352]",> 10 µM,> 10 µM,> 10 µM,> 10 µM
"Cc1c(-c2ccc3oc(N)nc3c2)ccc2ncc(C(=O)N3CCOCC3)n12 [US11547697, Compound 349]",> 10 µM,> 10 µM,> 10 µM,> 10 µM
"C[C@H]1CN(c2cnc3cccc(-c4ccc5oc(N)nc5c4)c3n2)CCN1 [US11547697, Compound 342]",> 10 µM,> 10 µM,> 10 µM,> 10 µM
"C[C@H]1CN(c2cnc3ccc(-c4cccc5c(N)nsc45)cc3n2)CCN1 [US11547697, Compound 321]",> 10 µM,> 10 µM,> 10 µM,> 10 µM
"Cc1c(-c2ccc3ncc(C(=O)N4CCOCC4)n3c2)ccc2oc(N)nc12 [US11547697, Compound 369]",> 10 µM,> 10 µM,> 10 µM,> 10 µM
"Nc1nc2cc(-c3cnc4ncc(-c5ccncc5)n4c3)ccc2o1 [US11547697, Compound 61]",> 10 µM,> 10 µM,> 10 µM,> 10 µM
"CC(=O)Nc1nc2cc(-c3ccc4oc(N)nc4c3)ccc2o1 [US11547697, Compound 244]",> 10 µM,> 10 µM,> 10 µM,> 10 µM
"CC(C)N1CCN(c2cnc3ccc(-c4ccc5oc(N)nc5c4)cc3n2)C(=O)C1 [US11547697, Compound 392]",> 10 µM,> 10 µM,> 10 µM,> 10 µM

# Other lines, results leading:
IC50 [1],IC50 [2],IC50 [3],IC50 [4],SMILES
> 10 µM,> 10 µM,> 10 µM,> 10 µM,"COc1ccc(CNc2n[nH]c3cc(-c4ccc5oc(N)nc5c4)ccc23)cc1 [US11547697, Compound 429]"
> 10 µM,> 10 µM,> 10 µM,> 10 µM,"O=C(c1cnc2ccc(-c3cccc(S(=O)(=O)Nc4ccccc4)c3)cn12)N1CCOCC1 [US11547697, Compound 440]"
> 10 µM,> 10 µM,> 10 µM,> 10 µM,"CS(=O)(=O)Nc1cccc(-c2ccc3ncc(C(=O)N4CCOCC4)n3c2)c1 [US11547697, Compound 443]"
> 10 µM,> 10 µM,> 10 µM,> 10 µM,"Nc1noc2cc(-c3ccc4ncc(C(=O)N5CCOCC5)n4c3)ccc12 [US11547697, Compound 488]"
> 10 µM,> 10 µM,> 10 µM,> 10 µM,"Nc1nc2cc(-c3ccc4[nH]nc(N)c4c3)ccc2o1 [US11547697, Compound 427]"
> 10 µM,> 10 µM,> 10 µM,> 10 µM,"CNS(=O)(=O)c1cccc(-c2ccc3ncc(C(=O)N4CCOCC4)n3c2)c1 [US11547697, Compound 442]"
> 10 µM,> 10 µM,> 10 µM,> 10 µM,"Nc1nc2cc(-c3ccc4nc(N)c(N5CC(N6CCOCC6)C5)nc4c3)ccc2o1 [US11547697, Compound 404]"
> 10 µM,> 10 µM,> 10 µM,> 10 µM,"Cc1cc2ncc(C(=O)N3CCOCC3)n2cc1-c1ccc2oc(N)nc2c1 [US11547697, Compound 507]"
> 10 µM,> 10 µM,> 10 µM,> 10 µM,"O=C(c1cnc2ccc(-c3cccc(S(=O)(=O)Nc4cc(F)ccc4F)c3)cn12)N1CCOCC1 [US11547697, Compound 441]"
> 10 µM,> 10 µM,> 10 µM,> 10 µM,"CS(=O)(=O)Nc1nc2cc(-c3ccc4ncc(C(=O)N5CCOCC5)n4c3)ccc2o1 [US11547697, Compound 405]"
> 10 µM,> 10 µM,> 10 µM,> 10 µM,"O=C(c1cnc2ccc(-c3ccc4c(Nc5ccccc5)nsc4c3)cn12)N1CCOCC1 [US11547697, Compound 505]"
> 10 µM,> 10 µM,> 10 µM,> 10 µM,"CC(=O)n1nc(N)c2ccc(-c3ccc4oc(N)nc4c3)cc21 [US11547697, Compound 426]"
> 10 µM,> 10 µM,> 10 µM,> 10 µM,"Nc1noc2c(-c3ccc4ncc(C(=O)N5CCOCC5)n4c3)cccc12 [US11547697, Compound 491]"
> 10 µM,> 10 µM,> 10 µM,> 10 µM,"CC(=O)Nc1n[nH]c2ccc(-c3ccc4oc(N)nc4c3)cc12 [US11547697, Compound 431]"
